Common to all, as to assay type: in vivo
In assay [1] the test system is Galium (catchweed bedstraw, Galium aparine). Description: Test A postemergence. The settings on record: Galium, post-emergence, 240 h; for pest or weed control at 125 g/ha: 125 g ai/ha, postemergence. The gist of the method: (§1)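 Preemergence directed soil spray on seeded pots, or postemergence application to plants 2–10 cm, one- to two-leaf. Solvent mixture non-phytotoxic, with surfactant. Scored ~10 d later, visually, 0–100 vs untreated.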

A further assay deals with Kochia (Kochia scoparia). Description: Test A postemergence. As to conditions: Bassia scoparia, post-emergence, 240 h; for pest or weed control at 125 g/ha: 125 g ai/ha, postemergence. The gist of the method: as §1
In assay [2] the test system is barnyardgrass (Echinochloa crus-galli). Description: Test A postemergence. As to conditions: Echinochloa crus-galli, post-emergence, 240 h; for pest or weed control at 125 g/ha: 125 g ai/ha, postemergence. Summed up: as §1
Assay [3] concerns blackgrass (Alopecurus myosuroides). Description: Test A postemergence. As to conditions: Alopecurus myosuroides, post-emergence, 240 h; for pest or weed control at 125 g/ha: 125 g ai/ha, postemergence. The gist of the method:
as §1

A further assay deals with corn (Zea mays). Description: Test A postemergence. As to conditions: Zea mays, post-emergence, 240 h. The gist of the method: as §1
For assay [4], the system named is giant foxtail (Setaria faberii). Description: Test A postemergence. As to conditions: Setaria faberi, post-emergence, 240 h; for pest or weed control at 125 g/ha: 125 g ai/ha, postemergence. Summed up: as §1
Assay [5] relates to pigweed (Amaranthus retroflexus). Put plainly: Test A postemergence. As to conditions: Amaranthus retroflexus, post-emergence, 240 h; for pest or weed control at 125 g/ha: 125 g ai/ha, postemergence. The gist of the method:
as §1

Assay [6] concerns ragweed (common ragweed, Ambrosia elatior). Description: Test A postemergence. As to conditions: Ambrosia artemisiifolia, post-emergence, 240 h; for pest or weed control at 125 g/ha: 125 g ai/ha, postemergence. The gist of the method:
as §1

For assay [7], the system named is ryegrass, Italian (Italian ryegrass, Lolium multiflorum). Description: Test A postemergence. The settings on record: Lolium multiflorum, post-emergence, 240 h; for pest or weed control at 125 g/ha: 125 g ai/ha, postemergence. Summed up:
as §1

The subject of assay [8] is wheat (Triticum aestivum). Put plainly: Test A postemergence. The settings on record: Triticum aestivum, post-emergence, 240 h; for plant injury at 125 g/ha: 125 g ai/ha, postemergence. The gist of the method:
as §1

In assay [9] the test system is barnyardgrass (Echinochloa crus-galli). Put plainly: Test B flooded paddy test. As to conditions: Echinochloa crus-galli, 250 g ai/ha, Flood, read-out: Barnyardgrass plant response rating. The gist of the method: (§2)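 Greenhouse paddy pots with 2-leaf stage plants received compound by direct addition to floodwater 3 cm deep, kept at that level. Scored visually at 13–15 d versus controls (0 no effect; 100 complete control).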

Assay [10] concerns ducksalad (Heteranthera limosa). Put plainly: Test B flooded paddy test. As to conditions: Heteranthera limosa, 250 g ai/ha, Flood, read-out: Ducksalad plant response rating. Summed up: as §2
A further assay deals with rice (Oryra sativa). Description: Test B flooded paddy test. The settings on record: Oryza sativa, 250 g ai/ha, Flood, read-out: Rice plant response rating. Summed up: as §2
Assay [11] concerns sedge, umbrella (small-flower umbrella sedge, Cyperus difformis). Description: Test B flooded paddy test. As to conditions: Cyperus difformis, 250 g ai/ha, Flood, read-out: Sedge, Umbrella plant response rating. The gist of the method: as §2
Where [12] appears, read: 0 to 100 scale where 0 is no effect and 100 is complete control.
The mark [13] stands for this setting: scale of 0 to 100 where 0 is no effect and 100 is complete control.

This is an account of results in US12077503B2, “Substituted cyclic amides and their use as herbicides” (FMC CORPORATION, priority 2015, dated 2024).

SMILES strings stand for the structures. Where two headings read alike, the source gives them in different places.

For `CCc1ccc([C@H]2CNC(=O)[C@@H]2C(=O)Nc2c(F)cccc2F)cc1` [Compound 1248], the pest or weed control at 125 g/ha in [1] (visual injury vs untreated controls after approx. 10 d, 0 = no effect, 100 = complete control, read-out: Galium plant response rating (0 to 100 scale)) turned out to be 0%; in the assay with Kochia (Kochia scoparia) (visual injury vs untreated controls after approx. 10 d, 0 = no effect, 100 = complete control, read-out: Kochia plant response rating (0 to 100 scale)) it was 0%; in [2] (visual injury vs untreated controls after approx. 10 d, 0 = no effect, 100 = complete control, read-out: Barnyardgrass plant response rating (0 to 100 scale)), 0%; in assay [3] (visual injury vs untreated controls after approx. 10 d, 0 = no effect, 100 = complete control, read-out: Blackgrass plant response rating (0 to 100 scale)), 0%; in assay [4] (visual injury vs untreated controls after approx. 10 d, 0 = no effect, 100 = complete control, read-out: Foxtail, Giant plant response rating (0 to 100 scale)), 0%; in assay [5] (visual injury vs untreated controls after approx. 10 d, 0 = no effect, 100 = complete control, read-out: Pigweed plant response rating (0 to 100 scale)) it was 0%. Besides, the pest or weed control at 125 g/ha in assay [6] (visual injury vs untreated controls after approx. 10 d, 0 = no effect, 100 = complete control, read-out: Ragweed plant response rating (0 to 100 scale)) was 0%; in assay [7] (visual injury vs untreated controls after approx. 10 d, 0 = no effect, 100 = complete control, read-out: Ryegrass, Italian plant response rating (0 to 100 scale)) it was 0%. Also, the pest or weed control at 500 g/ha in assay [1] (Postemergence, 500 g ai/ha, visual injury, 0 to 100 scale (0 no effect, 100 complete control), approx. 10 d, read-out: Plant response rating, Galium) was 0%; with Kochia (Kochia scoparia) (Postemergence, 500 g ai/ha, visual injury, 0 to 100 scale (0 no effect, 100 complete control), approx. 10 d, read-out: Plant response rating, Kochia) it was 0%; in assay [2] (Postemergence, 500 g ai/ha, visual injury, 0 to 100 scale (0 no effect, 100 complete control), approx. 10 d, read-out: Plant response rating, Barnyardgrass), 50%; in [3] (Postemergence, 500 g ai/ha, visual injury, 0 to 100 scale (0 no effect, 100 complete control), approx. 10 d, read-out: Plant response rating, Blackgrass) it was 0%; in assay [4] (Postemergence, 500 g ai/ha, visual injury, 0 to 100 scale (0 no effect, 100 complete control), approx. 10 d, read-out: Plant response rating, Foxtail, Giant), 20%; in [5] (Postemergence, 500 g ai/ha, visual injury, 0 to 100 scale (0 no effect, 100 complete control), approx. 10 d, read-out: Plant response rating, Pigweed), 0%. For the same molecule, the pest or weed control at 500 g/ha in assay [6] (Postemergence, 500 g ai/ha, visual injury, 0 to 100 scale (0 no effect, 100 complete control), approx. 10 d, read-out: Plant response rating, Ragweed) came to 0%; in [7] (Postemergence, 500 g ai/ha, visual injury, 0 to 100 scale (0 no effect, 100 complete control), approx. 10 d, read-out: Plant response rating, Ryegrass, Italian), 0%. For the same molecule, the plant injury at 125 g/ha in the assay with corn (Zea mays) (125 g ai/ha, postemergence, visual injury vs untreated controls after approx. 10 d, 0 = no effect, 100 = complete control, read-out: Corn plant response rating (0 to 100 scale)) was 0%; in [8] (visual injury vs untreated controls after approx. 10 d, 0 = no effect, 100 = complete control, read-out: Wheat plant response rating (0 to 100 scale)), 0%. Further, the Corn plant response rating (crop injury, 0 = no effect, 100 = complete kill) at 500 g/ha with corn (Zea mays) (Postemergence, 500 g ai/ha, visual injury, 0 to 100 scale (0 no effect, 100 complete control), approx. 10 d) stood at 0%. In assay [8] (Postemergence, 500 g ai/ha, visual injury, 0 to 100 scale (0 no effect, 100 complete control), approx. 10 d, read-out: Plant response rating, Wheat), the plant injury at 500 g/ha came out at 0%. Also, the pest or weed control at 250 g/ha in assay [9] (setting [12]) worked out at 15%; in assay [10] (setting [12]), 70%; in the assay with rice (Oryra sativa) (setting [12]) it was 0%; in [11] (setting [12]), 0%.

As for `CN1C[C@H](c2cc(F)cc(F)c2)[C@@H](C(=O)NC2CCc3ccccc32)C1=O` (some centres unmarked) [Compound 755], the pest or weed control at 125 g/ha in assay [1] (visual injury after approximately 10 d, 0 to 100 scale (0 no effect, 100 complete control), read-out: Plant response rating, Galium) came out at 0%; with Kochia (Kochia scoparia) (visual injury after approximately 10 d, 0 to 100 scale (0 no effect, 100 complete control), read-out: Plant response rating, Kochia) it was 0%; in assay [2] (visual injury after approximately 10 d, 0 to 100 scale (0 no effect, 100 complete control), read-out: Plant response rating, Barnyardgrass), 0%; in assay [3] (visual injury after approximately 10 d, 0 to 100 scale (0 no effect, 100 complete control), read-out: Plant response rating, Blackgrass), 0%; in assay [4] (visual injury after approximately 10 d, 0 to 100 scale (0 no effect, 100 complete control), read-out: Plant response rating, Foxtail, Giant), 0%; in assay [5] (visual injury after approximately 10 d, 0 to 100 scale (0 no effect, 100 complete control), read-out: Plant response rating, Pigweed), 0%. Also, the pest or weed control at 125 g/ha in assay [6] (visual injury after approximately 10 d, 0 to 100 scale (0 no effect, 100 complete control), read-out: Plant response rating, Ragweed) came to 0%; in assay [7] (visual injury after approximately 10 d, 0 to 100 scale (0 no effect, 100 complete control), read-out: Plant response rating, Ryegrass, Italian), 0%. The molecule also came in with a Corn plant response rating (crop injury, 0 = no effect, 100 = complete kill) at 125 g/ha with corn (Zea mays) (125 g ai/ha, postemergence, visual injury after approximately 10 d, 0 to 100 scale (0 no effect, 100 complete control)) of 0%. In addition, the plant injury at 125 g/ha in [8] (visual injury after approximately 10 d, 0 to 100 scale (0 no effect, 100 complete control), read-out: Plant response rating, Wheat) is 0%. For the same molecule, the pest or weed control at 250 g/ha (in assay [9] (setting [13]); in [10] (setting [13]); in the assay with rice (Oryra sativa) (setting [13]); in assay [11] (setting [13])) was 0% throughout.
